Assay results published in patent US20010006697A1, “Composition and method for producing low cholesterol eggs” (priority 1997, published 2001).
“Also recorded” adds a separate entry of the source. Marks after values point to notes of the source that are not given here.

Assays:
[1] = system: apolipoprotein B (apoB) mRNA; assay: Northern blot of liver mRNA: apoB; format: in vivo, White Leghorn hens; details: normalized by 18S rRNA; day 35
Source text: Endocrinol. […] Endocrinol.

[2] = Liver weight of statin-treated laying hens; details: day 35
laying hens [3] = assay: Yolk cholesterol contents of eggs from statin-treated laying hens; format: in vivo, White Leghorn hens; details: for less total yolk cholesterol than control eggs: week 2, per yolk
Description: Agric. […] Hens were treated as described in Example 1. […] The eggs were hard-cooked, and the yolks were separated, weighed, and crumbled. […] Agric. […] Egg homogenate filtrates were analyzed for cholesterol as described in Rudel, L. L. and Morris, M. D., J. Lipid Res. 14:364-366 (1973).

laying hens [4] = assay: Liver cholesterol content; details: day 35
laying hens [5] = assay: Egg production, egg weights and yolk weights of statin-treated laying hens; format: in vivo, White Leghorn hens
Description: Hens were treated as described in Example 1. Egg yolk was weighed as outlined in Example 2.

[6] = 0.03% of diet, Week 1, listed as atorvastatin
[7] = 0.06% of diet, Week 1, listed as atorvastatin
[8] = 0.06% of diet, week 5 (maximal reduction for simvastatin, lovastatin)
[9] = 0.03% of diet, Overall (weeks 1-5)
[10] = 0.06% of diet, Overall (weeks 1-5)

CC(C)c1c(C(=O)Nc2ccccc2)c(-c2ccccc2)c(-c2ccc(F)cc2)n1CC[C@@H](O)C[C@@H](O)CC(=O)O [Atorvastatin, (ΔR,δR)-2-(p-fluorophenyl)-β,δ-dihydroxy-5-isopropyl-3-phenyl-4-(phenylcarbamoyl)pyrrole-1-heptanoic acid]
hepatic apoB mRNA, linear contrasts (P≦0.05) [1]: atorvastatin>lovastatin; also recorded: atorvastatin>simvastatin | Liver Weight g ([2]; 0.03% of diet): 30.9 ± 1.2^b g | Liver Weight g/100 g BW ([2]; 0.03% of diet): 1.82 ± 0.05^a,b g/100 g BW | Liver Weight g ([2]; 0.06% of diet): 35.3 ± 2.3^a g | Liver Weight g/100 g BW ([2]; 0.06% of diet): 2.02 ± 0.09^a g/100 g BW | Yolk cholesterol content, mg cholesterol/g yolk (laying hens [3]; 0.03% of diet, Week 0): 11.4 ± 0.3^a mg cholesterol/g yolk | Yolk cholesterol content, mg cholesterol/yolk (laying hens [3]; 0.03% of diet, Week 0): 203.2 ± 7.7^a mg cholesterol/yolk | Yolk cholesterol content, mg cholesterol/g yolk (laying hens [3]; 0.03% of diet, Week 1): 9.4 ± 0.3^c mg cholesterol/g yolk | Yolk cholesterol content, mg cholesterol/yolk (laying hens [3]; 0.03% of diet, Week 1): 161.7 ± 5.5^b,c mg cholesterol/yolk | Yolk cholesterol content, mg cholesterol/g yolk (laying hens [3]; [6]): 9.4 mg cholesterol/g yolk | Yolk cholesterol content, mg cholesterol/yolk (laying hens [3]; [6]): 161.7 mg cholesterol/yolk | Yolk cholesterol content, mg cholesterol/g yolk (laying hens [3]; 0.03% of diet, Week 2): 8.7 ± 0.2^e mg cholesterol/g yolk | Yolk cholesterol content, mg cholesterol/g yolk (laying hens [3]; 0.03% of diet, Week 3): 8.6 ± 0.2^e mg cholesterol/g yolk | Yolk cholesterol content, mg cholesterol/yolk (laying hens [3]; 0.03% of diet, Week 3): 143.7 ± 3.3^c mg cholesterol/yolk | Yolk cholesterol content, mg cholesterol/g yolk (laying hens [3]; 0.03% of diet, Week 4): 8.3 ± 0.1^d mg cholesterol/g yolk | Yolk cholesterol content, mg cholesterol/yolk (laying hens [3]; 0.03% of diet, Week 4): 134.4 ± 2.2^c mg cholesterol/yolk | Yolk cholesterol content, mg cholesterol/g yolk (laying hens [3]; 0.03% of diet, Week 5): 8.2 ± 0.2^d mg cholesterol/g yolk | Yolk cholesterol content, mg cholesterol/yolk (laying hens [3]; 0.03% of diet, Week 5): 137.2 ± 3.8^d mg cholesterol/yolk | Yolk cholesterol content, mg cholesterol/yolk (laying hens [3]; 0.03% of diet, Week 5, listed as atorvastatin): 137.2 mg cholesterol/yolk | Yolk cholesterol content, mg cholesterol/g yolk (laying hens [3]; 0.06% of diet, Week 0): 11.3 ± 0.3^a mg cholesterol/g yolk | Yolk cholesterol content, mg cholesterol/yolk (laying hens [3]; 0.06% of diet, Week 0): 191.9 ± 7.3^a mg cholesterol/yolk | Yolk cholesterol content, mg cholesterol/g yolk (laying hens [3]; 0.06% of diet, Week 1): 9.3 ± 0.2^c mg cholesterol/g yolk | Yolk cholesterol content, mg cholesterol/yolk (laying hens [3]; 0.06% of diet, Week 1): 149.7 ± 3.8^c mg cholesterol/yolk | Yolk cholesterol content, mg cholesterol/g yolk (laying hens [3]; [7]): 9.3 mg cholesterol/g yolk | Yolk cholesterol content, mg cholesterol/yolk (laying hens [3]; [7]): 149.7 mg cholesterol/yolk | Yolk cholesterol content, mg cholesterol/g yolk (laying hens [3]; 0.06% of diet, Week 2): 7.8 ± 0.3^f mg cholesterol/g yolk | Yolk cholesterol content, mg cholesterol/yolk (laying hens [3]; 0.06% of diet, Week 2): 105.3 ± 4.3^d mg cholesterol/yolk | Yolk cholesterol content, mg cholesterol/yolk (laying hens [3]; 0.06% of diet, Week 2, listed as atorvastatin): 105.3 mg cholesterol/yolk | Yolk cholesterol content, mg cholesterol/g yolk (laying hens [3]; 0.06% of diet, Week 3): 7.5 ± 0.1^f mg cholesterol/g yolk | Yolk cholesterol content, mg cholesterol/yolk (laying hens [3]; 0.06% of diet, Week 3): 104.0 ± 3.7^d mg cholesterol/yolk | Yolk cholesterol content, mg cholesterol/g yolk (laying hens [3]; 0.06% of diet, Week 4): 7.5 ± 0.1^e mg cholesterol/g yolk | Yolk cholesterol content, mg cholesterol/yolk (laying hens [3]; 0.06% of diet, Week 4): 104.2 ± 2.3^d mg cholesterol/yolk | Yolk cholesterol content, mg cholesterol/g yolk (laying hens [3]; 0.06% of diet, Week 5): 7.6 ± 0.2^d mg cholesterol/g yolk | yolk cholesterol reduction from control on a per yolk (egg) basis (laying hens [3]; [8]): 46% | yolk cholesterol reduction from control per g of yolk (mg/g basis) (laying hens [3]; [8]): 35% | less total yolk cholesterol than control eggs (laying hens [3]; high dose (0.06%)): 45% | less total yolk cholesterol than control eggs (laying hens [3]; low dose (0.03%)): 27% | Liver Cholesterol mg/g liver (laying hens [4]; 0.03% of diet): 2.8 ± 0.05^c mg/g liver | Liver Cholesterol mg/liver (laying hens [4]; 0.03% of diet): 87.4 ± 2.2^a mg/liver | Liver Cholesterol mg/g liver (laying hens [4]; 0.06% of diet): 2.5 ± 0.07^d mg/g liver | Liver Cholesterol mg/liver (laying hens [4]; 0.06% of diet): 89.7 ± 5.2^a mg/liver | Egg weight, g (laying hens [5]; [9]): 61.3 ± 1.0^a,b (132) g | Hen-day egg production, % (laying hens [5]; [9]): 75.4 ± 4.1^b,c (132) % | Yolk weight, g (laying hens [5]; [9]): 16.6 ± 0.1^a (25) g | Egg weight, g (laying hens [5]; 0.03% of diet, Week 1): 63.0 ± 0.7^a g | Hen-day egg production, % (laying hens [5]; 0.03% of diet, Week 1): 82.9 ± 1.8^c,d % | Yolk weight, g (laying hens [5]; 0.03% of diet, Week 1): 17.2 ± 0.3^a g | Egg weight, g (laying hens [5]; 0.03% of diet, Week 2): 61.2 ± 0.8^c,d g | Hen-day egg production, % (laying hens [5]; 0.03% of diet, Week 2): 68.6 ± 1.0^c % | Yolk weight, g (laying hens [5]; 0.03% of diet, Week 2): 16.2 ± 0.3^a g | Egg weight, g (laying hens [5]; 0.03% of diet, Week 3): 60.5 ± 0.8^c g | Hen-day egg production, % (laying hens [5]; 0.03% of diet, Week 3): 80.0 ± 2.0^b % | Yolk weight, g (laying hens [5]; 0.03% of diet, Week 3): 16.7 ± 0.4^a g | Hen-day egg production, % (laying hens [5]; 0.03% of diet, Week 4): 77.1 ± 1.2^c % | Yolk weight, g (laying hens [5]; 0.03% of diet, Week 4): 16.2 ± 0.2^b g | Egg weight, g (laying hens [5]; 0.03% of diet, Week 5): 61.0 ± 0.7^b g | Hen-day egg production, % (laying hens [5]; 0.03% of diet, Week 5): 77.1 ± 1.2^c,d % | Yolk weight, g (laying hens [5]; 0.03% of diet, Week 5): 16.6 ± 0.3^a g | Egg weight, g (laying hens [5]; [10]): 58.9 ± 0.9^b (121) g | Hen-day egg production, % (laying hens [5]; [10]): 69.1 ± 3.5^c (121) % | Yolk weight, g (laying hens [5]; [10]): 14.3 ± 0.2^b (25) g | Egg weight, g (laying hens [5]; 0.06% of diet, Week 1): 63.6 ± 0.8^a g | Hen-day egg production, % (laying hens [5]; 0.06% of diet, Week 1): 82.9 ± 1.0^c,d % | Yolk weight, g (laying hens [5]; 0.06% of diet, Week 1): 16.1 ± 0.3^a g | Egg weight, g (laying hens [5]; 0.06% of diet, Week 2): 59.5 ± 1.0^d g | Hen-day egg production, % (laying hens [5]; 0.06% of diet, Week 2): 60.0 ± 1.8^d % | Yolk weight, g (laying hens [5]; 0.06% of diet, Week 2): 13.4 ± 0.3^b g | Egg weight, g (laying hens [5]; 0.06% of diet, Week 3): 56.9 ± 0.7^d g | Hen-day egg production, % (laying hens [5]; 0.06% of diet, Week 3): 68.6 ± 1.8^c % | Yolk weight, g (laying hens [5]; 0.06% of diet, Week 3): 13.9 ± 0.5^b g | Egg weight, g (laying hens [5]; 0.06% of diet, Week 4): 56.8 ± 0.7^e g | Hen-day egg production, % (laying hens [5]; 0.06% of diet, Week 4): 68.6 ± 1.8^d % | Yolk weight, g (laying hens [5]; 0.06% of diet, Week 4): 13.9 ± 0.3^c g | Egg weight, g (laying hens [5]; 0.06% of diet, Week 5): 57.8 ± 0.7^c g | Hen-day egg production, % (laying hens [5]; 0.06% of diet, Week 5): 74.3 ± 1.0^d % | Yolk weight, g (laying hens [5]; 0.06% of diet, Week 5): 14.2 ± 0.4^b g | decrease in yolk weight (laying hens [5]; 0.06% of diet, Week 5): 19%
